Data taken from patent US20220298540A1, “METHOD AND REAGENTS FOR DETECTING LUCIFERASE ACTIVITY” (OBSCHESATVO S OGRANICHENNOY OTVETSTVENNOSTYU "PLANTA", priority 2019, published 2022).

Columns and labels:
[1] = test system: recombinant luciferase Odontosyllis undecimdonta; experiment: Detecting luciferase in lysates of mammalian cells comprising recombinant luciferase; settings: 1 μg in 100 μl tris-buffered saline pH 7.5, aliquots added to cell lysates with recombinant luciferase; FIG. 11
Protocol: Recombinant luciferase was obtained from luciferase complementary DNA synthesized as a linear double-stranded DNA fragment (Twist Biosciences, USA). Cloning was performed using the Golden Gate method. Eukaryotic cell expression plasmids were assembled into the plasmid of the MoClo pICH47742 kit as a backbone, and the following parts were cloned in level 0 vectors: cytomegalovirus promoter, luciferase candidate gene, termination codon comprising a part of DNA, and SV40 polyadenylation terminator. HEK293NT cells were transfected with FuGene 6 reagent plasmid (Promega, Fitchburg, Wis., USA) according to the manufacturer's protocol. The transfected cells were grown under standard conditions.
Lysates of mammalian cells comprising recombinant luciferase Odontosyllis undecimdonta were used as biological samples. Cell lysates were obtained as described above in the section “Obtaining native luciferase and recombinant luciferase samples”.

[2] = test system: highly purified luciferase; experiment: In vitro bioluminescence reaction, conversion of luciferin into oxyluciferin with highly purified luciferase; format: biochemical, Odontosyllis undecimdonta; settings: 60 μL pure luciferin fraction, 40 μL tris-buffered saline, 20 μL highly purified luciferase; no luminescence in control tube
Protocol: Each tube contained 60 μL of pure luciferin fraction, 40 μL of tris-buffered saline and 20 μL of highly purified luciferase (see section below) or tris-buffered saline in case of negative control. […] The reaction was monitored by using 5 μl aliquots of the reaction and control mixtures, followed by stopping the reaction in 0, 5, 15, 30, 60, 120, 180, and 300 min by adding 20 μl of methanol and centrifugation, after that, the reversed-phase HPLC was used to analyze the supernatants. A Shim-Pack XR-ODS column (3.0×75 mm, 2.2 μm) was used in combination with a Nexera X2 system (Shimadzu, Japan). Solvent A is a 0.1% formic acid solution, pH 4.9, solvent B is acetonitrile. Elution was carried out in a linear gradient with the solvent B concentration from 1 to 20% (15 min) at a flow rate of 0.7 ml/min. Purified luciferase samples were obtained as a result of sequential purification of an aqueous extract of lyophilized worms: ion-exchange chromatography in a HiTrap Fast Flow column with DEAE-Sepharose (GE Healthcare, Uppsala, Sweden), ultrafiltration in an Amicon® Ultra centrifugal filter (Merck Millipore, Germany) and gel filtration chromatography in a Superdex 200 column ([…]).

[3] = Storage stability of freeze-dried substrate; format: physicochemical; settings: −20° C.
From the text: This new luciferin isolated by the present inventors has a unique structure that distinguishes it from all previously described natural luciferins. Thus, the basis of the Odontosyllis worm luciferin molecule is a condensed heterocycle—thieno[3,2-f]thiochromene consisting of two six-membered and one five-membered rings. Such complex condensed tricyclic structures have not previously been found as bioluminescent reaction substrates. It is also worth noting that thiopyran is named in the composition of natural bioluminescent substrates for the first time. Odontosyllis worm luciferin is a strongly polar molecule and represents a strong acid, since this molecule comprises three carboxyl substituents and also carries a sulfonic acid residue. Freeze-dried substrate is stored at −20° C. without decrease in activity for at least 30 days, more often at least 60 days, normally at least a year.

[4] = Effect of light on luciferin; format: physicochemical; settings: confirmed experimentally
From the text: Formation of bioluminescence depends on the amount and preservation of luciferase in biological samples.

[5] = test system: Odontosyllis undecimdonta worm luciferase; experiment: Detecting bioluminescence in cold extracts of Odontosyllis undecimdonta worms; format: biochemical; settings: 1 μg in 100 μl tris-buffered saline pH 7.5, aliquots added to cold worm extracts; FIG. 12, FIG. 13
Protocol: Adding 5 ml of phosphate buffer (5 mM sodium phosphate buffer, pH 7.4) to 200 mg of lyophilized worms. Pipetting the mixture into liquid nitrogen to create small drops of frozen material, then grounding them in a mortar. Adding the frozen powder to 15 ml of phosphate buffer (5 mM sodium phosphate buffer, pH 7.4) and incubating for 40 minutes in an ice bath while stirring regularly. Centrifuging the mixture at 40,000 g (4° C.) for 40 min. Collecting the supernatant comprising luciferase, luciferin and oxyluciferin, freezing the cell-free extract and storing at −70° C. […] Extracts of Odontosyllis undecimdonta worms were used as biological samples. […]

Compound | luminescence of biological samples [1] | radiation (luminescence) in the course of the reaction [2] | storage without decrease in activity [3] | effect of light emission, especially the UV part of the spectrum [4] | luminescence of biological samples [5]
O=C(O)C1=Cc2c(c(OS(=O)(=O)O)c(O)c3scc(C(=O)O)c23)SC1C(=O)O (stereo not drawn) [luciferin, 4-hydroxy-5-(sulfooxy)-7H-thieno[3,2-f]thiochromen-1,7,8-tricarboxylic acid] | detected | Radiation was observed | at least 30 days | degradation and loss of functionality | detected
O=C(O)C(=O)C1=C(C(=O)O)Cc2c(c(OS(=O)(=O)O)c(O)c3scc(C(=O)O)c23)S1 [pre-luciferin, 7-(carboxycarbonyl)-4-hydroxy-5-(sulfooxy)-9H-thieno[3,2-f]thiochromene-1,8-dicarboxylic acid] | – | – | – | – | detected
